Drawing on US12065421B2, “Inhibitors of oplophorus luciferase-derived bioluminescent complexes” (priority 2018, dated 2024), this text covers IC50 for 25 compounds.

As usually defined, the IC50 is the concentration that gives 50% inhibition. Read a low IC50 as greater potency in that assay.

This test has as its target T1, NanoBiT® HiBiT non-luminescent peptide and LgBiT non-luminescent polypeptide (HiBiT/LgBiT bioluminescent complex) (Oplophorus gracilirostris, UniProt Q9GV45, A31E/A60N/A81I/C191F/D135N/E192K/F58L/F95D/G184S/G42A/G62A/G78A/G94A/G98A/H120P/I103V/I117V/I134L/K70R/L176M/L195S/L54V/L73R/L99Q/M102E/N171T/N193K/P142E/Q151K/Q38E/Q45L/T186S/V71I/Y165I).
T1 construct: fused on or other part: N-terminal Met-Val on LgBiT in place of the signal peptide (residues 1-27); The chain is split between residues 184 and 185 into LgBiT and the 11-residue HiBiT peptide (residues 185-195); C-terminal A196 is absent
The test is described as follows: biochemical.

T1 sequence (Q9GV45 other isoform, or with tags, fused parts or gaps with the stated changes): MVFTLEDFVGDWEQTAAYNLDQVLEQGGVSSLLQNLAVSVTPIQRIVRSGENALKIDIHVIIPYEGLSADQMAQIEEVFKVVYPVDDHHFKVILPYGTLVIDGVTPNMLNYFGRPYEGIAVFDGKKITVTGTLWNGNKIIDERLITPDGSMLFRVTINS

Compound `Cc1ccc(NC(=O)c2ccccc2NS(=O)(=O)c2cccc(CO)c2)cc1` [JRW-1261, 2-((3-(hydroxymethyl)phenyl)sulfonamido)-N-(p-tolyl)benzamide] gave an IC50 of 170 nM. As to `Cc1ccc(S(=O)(=O)Nc2ccccc2C(=O)Nc2ccc3c(c2)CCCC3)cc1` [HL-0008, 2-((4-methylphenyl)sulfonamido)-N-(5,6,7,8-tetrahydronaphthalen-2-yl)benzamide], the IC50 was found to be 24 nM. `COc1ccc(C(=O)Nc2ccc(C)cc2)c(NS(=O)(=O)c2ccc(C)cc2)c1` [JRW-1202, 4-methoxy-2-((4-methylphenyl)sulfonamido)-N-(p-tolyl)benzamide]: the IC50 amounted to 180 nM. Regarding `CCCCc1ccc(NS(=O)(=O)c2ccc(C)cc2)c(C(=O)Nc2cc3ccccc3s2)c1` [JRW-1146, N-(benzo[b]thiophen-2-yl)-5-butyl-2-((4-methylphenyl)sulfonamido)benzamide], inhibition was half-maximal at 630 nM (IC50). Turning to `Cc1ccc(S(=O)(=O)Nc2ccc(F)cc2C(=O)Nc2cc3ccccc3s2)cc1` [JRW-1347, N-(benzo[b]thiophen-2-yl)-5-fluoro-2-((4-methylphenyl)sulfonamido)benzamide], 0.8 nM corresponded to half-maximal inhibition (IC50).

Compound `Cc1ccc(S(=O)(=O)Nc2ccccc2C(=O)Nc2ccccc2C#N)cc1` [JRW-1008, N-(2-cyanophenyl)-2-((4-methylphenyl)sulfonamido)benzamide] gave an IC50 of 240 nM.

`O=C(Nc1cc2ccccc2s1)c1ccccc1NS(=O)(=O)c1ccc(CCCO)cc1` [HL-0062, N-(benzo[b]thiophen-2-yl)-2-((4-(3-hydroxypropyl)phenyl)sulfonamido)benzamide] had an IC50 of 1200 nM. Take `Cc1ccc(NC(=O)c2ccccc2NS(=O)(=O)c2ccc(C)cc2)cc1` [HL-0019, 2-((4-methylphenyl)sulfonamido)-N-(p-tolyl)benzamide]: the half-maximal inhibitory concentration (IC50) is 29 nM. In turn, `CCCCOc1cccc(S(=O)(=O)Nc2ccccc2C(=O)Nc2ccc(C)cc2)c1` [JRW-1266, 2-((3-butoxyphenyl)sulfonamido)-N-(p-tolyl)benzamide] had an IC50 of 1500 nM. On to `O=C(Nc1cc2ccccc2s1)c1ccccc1NS(=O)(=O)c1ccc2c(c1)CCCC2` [JRW-1077, N-(benzo[b]thiophen-2-yl)-2-((5,6,7,8-tetrahydronaphthalene)-2-sulfonamido)benzamide], for which the IC50 came to 89 nM. In turn, `Cc1ccc(S(=O)(=O)Nc2ccccc2C(=O)Nc2ccc(-c3ccccc3)cc2)cc1` [JRW-1288, N-([1,1′-biphenyl]-4-yl)-2-((4-methylphenyl)sulfonamido)benzamide] displayed an IC50 of 110 nM. In turn, `COC(=O)[C@H]1CC[C@H](NC(=O)c2ccccc2NS(=O)(=O)c2ccc(C)cc2)CC1` [HL-0009, methyl trans-4-(2-((4-methylphenyl)sulfonamido)benzamido)cyclohexane-1-carboxylate] registered an IC50 of 16000 nM. In turn, `Cc1ccc(S(=O)(=O)Nc2ccc(C(F)(F)F)cc2C(=O)Nc2cc3ccccc3s2)cc1` [JRW-1388, N-(benzo[b]thiophen-2-yl)-2-((4-methylphenyl)sulfonamido)-5-(trifluoromethyl)benzamide] gave an IC50 of 0.58 nM. The compound `CCOC(=O)Cc1ccc(NC(=O)c2ccccc2NS(=O)(=O)c2ccc(C)cc2)cc1` [HL-0023, ethyl 2-(4-(2-((4-methylphenyl)sulfonamido)benzamido)phenyl)acetate] showed an IC50 of 580 nM. Consider `Cc1ccc(NC(=O)c2ccccc2NS(=O)(=O)c2ccc(Br)cc2)cc1` [JRW-1287, 2-((4-bromophenyl)sulfonamido)-N-(p-tolyl)benzamide], for which the IC50 stood at 150 nM.

Regarding `CCN(c1ccccc1C(=O)Nc1ccc(OC)cc1)S(=O)(=O)c1ccc(C)cc1` [JRW-1325, 2-((N-ethyl-4-methylphenyl)sulfonamido)-N-(4-methoxyphenyl)benzamide], the IC50 was 1300 nM.

Regarding `Cc1ccc(S(=O)(=O)Nc2ccccc2C(=O)Nc2cccc(-c3ccccc3)c2)cc1` [JRW-1297, N-([1,1′-biphenyl]-3-yl)-2-((4-methylphenyl)sulfonamido)benzamide], half-maximal inhibition (IC50) required 100 nM. In the case of `Cc1ccc(S(=O)(=O)Nc2ccccc2C(=O)Nc2ccccc2)cc1` [JRW-1011, 2-((4-methylphenyl)sulfonamido)-N-phenylbenzamide], the IC50 amounted to 94 nM.

`CCCc1ccccc1NC(=O)c1ccccc1NS(=O)(=O)c1ccc(C)cc1` [HL-0059, 2-((4-methylphenyl)sulfonamido)-N-(2-propylphenyl)benzamide] registered an IC50 of 190 nM.

Consider `COc1ccccc1NC(=O)c1ccccc1NS(=O)(=O)c1ccc(C)cc1` [JRW-1292, N-(2-methoxyphenyl)-2-((4-methylphenyl)sulfonamido)benzamide], for which the IC50 was 590 nM.

As to `CCCCNc1cccc(S(=O)(=O)Nc2ccccc2C(=O)Nc2ccc(C)cc2)c1` [JRW-1269, 2-((3-(butylamino)phenyl)sulfonamido)-N-(p-tolyl)benzamide], the IC50 came out at 1100 nM. The value for `Cc1ccc(S(=O)(=O)Nc2ccc(C#N)cc2C(=O)Nc2cc3ccccc3s2)cc1` [HL-0071, N-(benzo[b]thiophen-2-yl)-5-cyano-2-((4-methylphenyl)sulfonamido)benzamide] was 43 nM; that for `CCCCC#Cc1cccc(S(=O)(=O)Nc2ccccc2C(=O)Nc2ccc(C)cc2)c1` [JRW-1270, 2-((3-(hex-1-yn-1-yl)phenyl)sulfonamido)-N-(p-tolyl)benzamide] was 1200 nM. In the case of `CCCCc1cccc(NC(=O)c2ccccc2NS(=O)(=O)c2ccc(C)cc2)c1` [HL-0070, N-(3-butylphenyl)-2-((4-methylphenyl)sulfonamido)benzamide], inhibition was half-maximal at 130 nM (IC50). Under `Cc1ccc(S(=O)(=O)Nc2ccccc2C(=O)Nc2cccc(C)c2)cc1` [HL-0044, 2-((4-methylphenyl)sulfonamido)-N-(m-tolyl)benzamide] stands 88 nM.
